Test results: patent US9409952B2, “Peptide-compound cyclization method” (Chugai Seiyaku Kabushiki Kaisha, priority 2011, dated 2016)
Starred links: 1 amine or outer side, 2 acyl side, 3 side chain; linkers in the order of their positions; H or OH if unused. Positions of bridges follow the written chain, without caps; N, C: chain ends. Non-standard residues stand in square brackets, D forms with d. Residues, ends and D or L forms follow the SMILES beside them. *: point of attachment. Phe(3-(CH2)4CO) = O=C([C@H](Cc1cccc(CCCCC(=O)[*:3])c1)N[*:1])[*:2]; NMeF = CN[C@@H](Cc1ccccc1)C(=O)O; NMeI = CC[C@H](C)[C@H](NC)C(=O)O; NMeL = CN[C@@H](CC(C)C)C(=O)O; NMeV = CN[C@H](C(=O)O)C(C)C; NMeA = CN[C@@H](C)C(=O)O; Piperidide = C1CCN(*)CC1; Sar = CNCC(=O)O

How the values were obtained:
[1] = PAMPA (parallel artificial membrane permeability assay); format: in vitro ADME; settings: PAMPA; membrane permeation rate (Pe); 50 mM MOPSO buffer pH 6.5 with 5.0% glycocholic acid, 37° C., 18 hours; read-out: iPAMPA Pe
In short: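 Artificial membrane was 10% (w/v) egg lecithin plus 0.5% (w/v) cholesterol in dodecane on a PVDF filter. A 10 mM DMSO stock was added at 0.5% (v/v) to donor buffer (50 mM MOPSO, pH 6.5, 5.0% glycocholic acid). After 18 h at 37 °C, LC/MS or LC/UV gave donor and acceptor levels for Pe.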

[2] = Metabolic stability in human hepatic microsome; format: in vitro ADME; settings: microsomes, pH 7.4; human hepatic microsome, NADPH(+); read-out: CL NADPH(+)

SMILES	Papp at 18 hours, 50 µM [1]	microsomal CLint at 1 uM [2]
CC[C@H](C)[C@@H]1NC(=O)CCCCc2cccc(c2)C[C@@H](C(=O)N2CCCCC2)NC(=O)[C@H](Cc2ccccc2)N(C)C(=O)[C@H](CC(C)C)N(C)C(=O)CN(C)C(=O)[C@H]([C@@H](C)O)NC(=O)[C@H](C)N(C)C(=O)[C@H](C(C)C)N(C)C(=O)[C@H](C)NC(=O)[C@H](CC(C)C)N(C)C(=O)[C@H](Cc2ccccc2)N(C)C1=O [DP-886] (I[NMeF][NMeL]A[NMeV][NMeA]T[Sar][NMeL][NMeF][Phe(3-(CH2)4CO)]-Piperidide; lactam N-11)	22 ×10⁻⁶ cm/s	162 µL/min/mg
C=C1CCC(=O)NCC(=O)N(C)[C@@H](C)C(=O)N[C@@H](CC(C)C)C(=O)N[C@@H](C(C)C)C(=O)N(C)[C@@H](CC(C)C)C(=O)N[C@@H](Cc2ccccc2)C(=O)N(C)[C@@H](Cc2ccccc2)C(=O)N[C@@H]([C@@H](C)CC)C(=O)N(C)[C@@H](C)C(=O)N[C@@H](CC(C)C)C(=O)N[C@@H]([C@@H](C)O)C(=O)N[C@H](C(=O)N2CCCCC2)Cc2ccc1cc2 [DP-887]	3.9 ×10⁻⁶ cm/s	103 µL/min/mg
C=C1CCC(=O)N[C@@H](CC(C)C)C(=O)N[C@@H](C(C)C)C(=O)N(C)[C@@H](CC(C)C)C(=O)N[C@@H](Cc2ccccc2)C(=O)N(C)[C@@H](Cc2ccccc2)C(=O)N[C@@H]([C@@H](C)CC)C(=O)N(C)[C@@H](C)C(=O)N[C@@H](CC(C)C)C(=O)N[C@@H]([C@@H](C)O)C(=O)N[C@H](C(=O)N2CCCCC2)Cc2ccc1cc2 [DP-888]	0.81 ×10⁻⁶ cm/s	69 µL/min/mg
C=C1CCC(=O)NCC(=O)N(C)[C@@H](C)C(=O)N[C@@H](CC(C)C)C(=O)N[C@@H](C(C)C)C(=O)N(C)[C@@H](CC(C)C)C(=O)N[C@@H](Cc2ccccc2)C(=O)N(C)[C@@H](Cc2ccccc2)C(=O)N[C@@H]([C@@H](C)CC)C(=O)N(C)[C@@H](C)C(=O)N[C@@H](CC(C)C)C(=O)N[C@@H]([C@@H](C)O)C(=O)N[C@H](C(=O)N2CCCCC2)Cc2cccc1c2 [DP-889]	3.6 ×10⁻⁶ cm/s	89 µL/min/mg
CC[C@H](C)[C@@H]1NC(=O)[C@H](Cc2ccccc2)N(C)C(=O)[C@H](Cc2ccccc2)NC(=O)[C@H](CC(C)C)N(C)C(=O)[C@H](C(C)C)NC(=O)[C@H](CC(C)C)NC(=O)[C@H](C)N(C)C(=O)CNC(=O)CCCCc2cccc(c2)C[C@@H](C(=O)N2CCCCC2)NC(=O)[C@H]([C@@H](C)O)NC(=O)[C@H](CC(C)C)NC(=O)[C@H](C)N(C)C1=O [DP-893] (G[NMeA]LV[NMeL]F[NMeF]I[NMeA]LT[Phe(3-(CH2)4CO)]-Piperidide; lactam N-12)	5.3 ×10⁻⁶ cm/s	86 µL/min/mg
CC[C@H](C)[C@@H]1NC(=O)[C@H](Cc2ccccc2)N(C)C(=O)[C@H](Cc2ccccc2)NC(=O)[C@H](CC(C)C)N(C)C(=O)[C@H](C(C)C)NC(=O)[C@H](CC(C)C)NC(=O)CCCCc2cccc(c2)C[C@@H](C(=O)N2CCCCC2)NC(=O)[C@H]([C@@H](C)O)NC(=O)[C@H](CC(C)C)NC(=O)[C@H](C)N(C)C1=O [DP-894] (LV[NMeL]F[NMeF]I[NMeA]LT[Phe(3-(CH2)4CO)]-Piperidide; lactam N-10)	0.46 ×10⁻⁶ cm/s	71 µL/min/mg
CC[C@H](C)[C@H]1C(=O)N[C@@H](Cc2ccccc2)C(=O)N(C)[C@@H](Cc2ccccc2)C(=O)N[C@@H]([C@@H](C)O)C(=O)N2CCC[C@H]2C(=O)N[C@@H](CC(C)C)C(=O)N[C@H](C(=O)N2CCCCC2)Cc2cccc(c2)CCCCC(=O)N[C@@H](C(C)C)C(=O)N(C)CC(=O)N[C@@H](CC(C)C)C(=O)N(C)[C@@H](CC(C)C)C(=O)N[C@@H](C)C(=O)N1C [DP-896] (V[Sar]L[NMeL]A[NMeI]F[NMeF]TPL[Phe(3-(CH2)4CO)]-Piperidide; lactam N-12)	13 ×10⁻⁶ cm/s	57 µL/min/mg
CC[C@H](C)[C@H]1C(=O)N[C@@H](Cc2ccccc2)C(=O)N(C)[C@@H](Cc2ccccc2)C(=O)N[C@@H]([C@@H](C)O)C(=O)N2CCC[C@H]2C(=O)N[C@@H](CC(C)C)C(=O)N[C@H](C(=O)N2CCCCC2)Cc2cccc(c2)CCCCC(=O)N[C@@H](CC(C)C)C(=O)N(C)[C@@H](CC(C)C)C(=O)N[C@@H](C)C(=O)N1C [DP-897] (L[NMeL]A[NMeI]F[NMeF]TPL[Phe(3-(CH2)4CO)]-Piperidide; lactam N-10)	2.4 ×10⁻⁶ cm/s	56 µL/min/mg
CC[C@H](C)[C@@H]1NC(=O)[C@H](Cc2ccccc2)NC(=O)[C@@H]2CCCN2C(=O)[C@H](CC(C)C)N(C)C(=O)[C@H](Cc2ccccc2)NC(=O)[C@H](CC(C)C)NC(=O)[C@H]([C@@H](C)O)NC(=O)[C@H](C)N(C)C(=O)[C@H](C(C)C)NC(=O)CCCCc2cccc(c2)C[C@@H](C(=O)N2CCCCC2)NC(=O)[C@H](CC(C)C)NC(=O)CN(C)C1=O [DP-900] (V[NMeA]TLF[NMeL]PFI[Sar]L[Phe(3-(CH2)4CO)]-Piperidide; lactam N-12)	1.3 ×10⁻⁶ cm/s	244 µL/min/mg
CC[C@H](C)[C@@H]1NC(=O)[C@H](Cc2ccccc2)NC(=O)[C@@H]2CCCN2C(=O)[C@H](CC(C)C)N(C)C(=O)[C@H](Cc2ccccc2)NC(=O)[C@H](CC(C)C)NC(=O)[C@H]([C@@H](C)O)NC(=O)CCCCc2cccc(c2)C[C@@H](C(=O)N2CCCCC2)NC(=O)[C@H](CC(C)C)NC(=O)CN(C)C1=O [DP-901] (TLF[NMeL]PFI[Sar]L[Phe(3-(CH2)4CO)]-Piperidide; lactam N-10)	23 ×10⁻⁶ cm/s	131 µL/min/mg
CC[C@H](C)[C@@H]1NC(=O)[C@H](Cc2ccccc2)NC(=O)CCCCc2cccc(c2)C[C@@H](C(=O)N2CCCCC2)NC(=O)[C@H](CC(C)C)NC(=O)[C@H](CC(C)C)NC(=O)[C@H](C(C)C)NC(=O)[C@H](C)N(C)C(=O)[C@H](Cc2ccccc2)NC(=O)CNC(=O)[C@H]([C@@H](C)O)NC(=O)[C@H](CC(C)C)NC(=O)[C@@H]2CCCN2C1=O [DP-903] (FIPLTGF[NMeA]VLL[Phe(3-(CH2)4CO)]-Piperidide; lactam N-12)	0.34 ×10⁻⁶ cm/s	26 µL/min/mg
CC(C)C[C@H]1NC(=O)C[C@@H](C(=O)N2CCCCC2)NC(=O)[C@H](CC(C)C)N(C)C(=O)[C@H](Cc2ccccc2)NC(=O)[C@H](CC(C)C)N(C)C(=O)[C@H](C)N(C)C(=O)[C@H](Cc2c[nH]cn2)NC(=O)[C@H](CC(C)C)N(C)C(=O)[C@H](Cc2ccccc2)N(C)C1=O [DP-904] ([dL][NMeF][NMeL]H[NMeA][NMeL]F[NMeL]D-Piperidide; lactam N-9)	7.8 ×10⁻⁶ cm/s	89 µL/min/mg
CC(C)C[C@@H]1NC(=O)[C@H](CC(C)C)N(C)C(=O)[C@H]([C@@H](C)O)NC(=O)[C@H](Cc2ccccc2)N(C)C(=O)C[C@@H](C(=O)N2CCCCC2)NC(=O)[C@H](CC(C)C)N(C)C(=O)[C@H](Cc2c[nH]cn2)NC(=O)[C@H](Cc2ccccc2)N(C)C(=O)[C@H](Cc2ccccc2)N(C)C1=O [DP-905] ([NMeF]T[NMeL]L[NMeF][NMeF]H[NMeL]D-Piperidide; lactam N-9)	0.6 ×10⁻⁶ cm/s	73 µL/min/mg
CC(C)C[C@@H]1NC(=O)[C@H](CC(C)C)N(C)C(=O)C[C@@H](C(=O)N2CCCCC2)NC(=O)[C@H](CC(C)C)N(C)C(=O)[C@H](C)N(C)C(=O)[C@H]([C@@H](C)O)NC(=O)[C@H](CC(C)C)N(C)C(=O)[C@H](Cc2ccccc2)N(C)C(=O)[C@H](Cc2c[nH]cn2)NC(=O)[C@H](Cc2ccccc2)N(C)C(=O)[C@H](CC(C)C)N(C)C1=O [DP-906] ([NMeL]L[NMeL][NMeF]H[NMeF][NMeL]T[NMeA][NMeL]D-Piperidide; lactam N-11)	0.65 ×10⁻⁶ cm/s	49 µL/min/mg
